Test results as given in US4485039A, “Synthetic analogues of α-melanotropin” (University Patents, Inc., priority 1982, dated 1984).
One block for each compound: values may come before it. Positions of bridges follow the written chain, without caps; N, C: chain ends. Residues, ends and D or L forms follow the SMILES beside them.

Key:
[1] = cited from earlier work
[2] = test system: frog (Rana pipiens) skin melanophores; assay: duration of melanosome dispersion, frog skin bioassay; assay type: cell-based; settings: 5×10^-10 M, skins rinsed at 60 minutes
Protocol: The compounds of Example 1 were examined with respect to the duration of their ability to stimulate melanosome dispersion in vitro using the frog (Rana pipiens) skin bioassay.
At time zero, 5×10^-10 M of α-MSH was added to one group of frog skins and 5×10^-10 M of the test compounds were individually added to the second and third groups of skins. At time=60 minutes, skins were rinsed and transferred to Ringers solution.

[3] = test system: lizard (Anolis carolinensis) skin melanophores; assay: lizard skin bioassay, melanosome dispersion in vitro; assay type: cell-based
[4] = test system: adenylate cyclase in Cloudman S-91 mouse melanoma tumors; settings: [α-32P]ATP conversion to [32P]cAMP
Source text: ATP conversion to [^32 P]cAMP in Cloudman S-91 mouse melanoma tumors as described in Sawyer, et al., Proc. Nat. Acad. Sci. USA, 77, 5754-5758 (1980). [^32 P]cAMP was isolated, purified and detected according to Salomon, et al., Anal. Biochem., 24, pp. 18-26 (1976).

[5] = test system: frog (Rana pipiens) skin melanophores; assay: frog skin bioassay, melanosome dispersion in vitro; assay type: cell-based; settings: standard frog skin assay
Source text: The Example 1 compounds were examined for their biological effects on melanosome dispersion in vitro using the standard frog (Rana pipiens) skin bioassay and photo-reflectance methods. See, Hadley, et al., Science, 213, pp. 1025-1027 (1981).

time to complete degradation to a biologically inactive compound (chymotrypsin): ≤ 5 minutes
Compound: Ac-Ser^1 -Tyr^2 -Ser^3 -Met^4 -Glu^5 -His^6 -Phe^7 -Arg^8 -Trp^9 -Gly^10 -Lys^11 -Pro^12 -Val^13 -NH2 [α-MSH]
half-life in serum [1]: less than 2 minutes
time until activity completely reversed [2]: less than three

Compound: [Half-Cys^4, half-Cys^10 ]-α-MSH
potency relative to the native hormone [3]: approximately thirty
maximal adenylate cyclase activity compared with α-MSH [4]: same maximal adenylate cyclase activity as α-MSH
potency relative to the native hormone [4]: approximately three

enzymatic stability compared with α-MSH (in words) (chymotrypsin): enzymatically more stable than α-MSH
Compound: [half-Cys^5, half-Cys^11 ]-α-MSH
potency compared with α-MSH (in words) [5]: less potent than α-MSH

Compound: CC(=O)N[C@H]1CSSC[C@@H](C(=O)N[C@@H](CCCCN)C(=O)N2CCC[C@H]2C(=O)N[C@H](C(N)=O)C(C)C)NC(=O)[C@H](Cc2c[nH]c3ccccc23)NC(=O)[C@H](CCCNC(=N)N)NC(=O)[C@H](Cc2ccccc2)NC(=O)[C@H](Cc2cnc[nH]2)NC(=O)[C@H](CCC(=O)O)NC1=O [acetyl-[half-Cys^4, half-Cys^10]-α-MSH4-13NH.sbsb.2] (Ac-CEHFRWCKPV-NH2; disulfide 1-7)
potency relative to the native hormone [3]: about 1.6 times
